From patent US6608086B2, “Dihydropyridines and new uses thereof” (Synaptic Pharmaceutical Corporation, priority 1993, dated 2003)
Like-named read-outs stand apart in the source and are kept apart here.

Columns and labels:
α2C receptor = molecular target: T1, α2C receptor (Homo sapiens, UniProt P18825); test: Competition binding, [3H]rauwolscine, human α2C receptor; details: [3H]rauwolscine, human α2C receptor, LM(tk−) cells
T1 construct: host or cells: LM(tk-) cells, line L-α2C
T1 sequence (P18825 1-462): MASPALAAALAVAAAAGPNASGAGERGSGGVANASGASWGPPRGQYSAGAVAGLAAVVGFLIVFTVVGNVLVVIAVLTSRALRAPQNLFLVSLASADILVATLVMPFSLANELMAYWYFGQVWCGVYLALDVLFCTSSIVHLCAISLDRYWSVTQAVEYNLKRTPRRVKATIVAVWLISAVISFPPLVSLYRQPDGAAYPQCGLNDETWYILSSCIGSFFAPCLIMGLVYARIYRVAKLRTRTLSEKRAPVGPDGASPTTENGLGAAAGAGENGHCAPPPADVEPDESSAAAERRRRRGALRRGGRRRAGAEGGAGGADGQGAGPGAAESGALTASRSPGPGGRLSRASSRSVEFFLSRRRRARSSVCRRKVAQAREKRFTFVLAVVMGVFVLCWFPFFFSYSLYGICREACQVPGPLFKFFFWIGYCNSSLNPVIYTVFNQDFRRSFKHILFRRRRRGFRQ
How it was run: (§1)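 Cell lysates from stably transfected LM(tk−) lines are resuspended in 25 mM glycylglycine (pH 7.6 at room temperature), incubated to equilibrium with 0.5 nM [3H]rauwolscine plus competitor, then filtered through GF/B filters; 10 μM phentolamine defines nonspecific binding.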

[1] = molecular target: T2, α1A Human Adrenergic Receptor (Homo sapiens, UniProt P25100); test: Radioligand binding, [3H]prazosin, cloned human α1A adrenergic receptor; details: [3H]prazosin, cloned human α1A receptor, LM(tk−) cell membranes
T2 construct: The entire coding region of α1A (1719 bp); expressed in transfected cells
T2 sequence (P25100 1-572): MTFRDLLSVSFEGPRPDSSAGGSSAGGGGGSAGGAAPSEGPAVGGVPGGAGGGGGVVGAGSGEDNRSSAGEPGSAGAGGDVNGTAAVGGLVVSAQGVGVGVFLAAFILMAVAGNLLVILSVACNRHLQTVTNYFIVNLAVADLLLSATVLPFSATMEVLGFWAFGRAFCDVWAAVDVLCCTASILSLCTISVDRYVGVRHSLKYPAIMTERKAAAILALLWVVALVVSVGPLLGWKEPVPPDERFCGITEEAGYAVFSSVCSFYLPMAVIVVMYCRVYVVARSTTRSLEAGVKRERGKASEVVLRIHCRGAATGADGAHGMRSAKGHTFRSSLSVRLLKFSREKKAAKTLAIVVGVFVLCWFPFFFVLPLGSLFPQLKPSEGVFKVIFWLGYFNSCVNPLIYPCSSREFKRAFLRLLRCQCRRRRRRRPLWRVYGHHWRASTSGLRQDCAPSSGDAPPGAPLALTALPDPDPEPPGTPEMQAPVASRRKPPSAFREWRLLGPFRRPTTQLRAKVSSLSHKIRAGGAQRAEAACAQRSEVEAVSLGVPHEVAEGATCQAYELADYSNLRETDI
How it was run: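 Transfected LM(tk−) cells are lysed by sonication and membranes collected at 30,000× g. Membranes then bind 0.5 nM [3H]prazosin for 20 min at 37° C, and the reaction is stopped by filtration over GF/B filters, with 10 μM phentolamine giving nonspecific binding.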

α2B receptor = molecular target: T3, α2B receptor (Homo sapiens, UniProt P18089); test: Competition binding, [3H]rauwolscine, human α2B receptor; details: [3H]rauwolscine, human α2B receptor, LM(tk−) cells
T3 construct: host or cells: LM(tk-) cells, line L-NGC-α2B
T3 sequence (P18089 1-450): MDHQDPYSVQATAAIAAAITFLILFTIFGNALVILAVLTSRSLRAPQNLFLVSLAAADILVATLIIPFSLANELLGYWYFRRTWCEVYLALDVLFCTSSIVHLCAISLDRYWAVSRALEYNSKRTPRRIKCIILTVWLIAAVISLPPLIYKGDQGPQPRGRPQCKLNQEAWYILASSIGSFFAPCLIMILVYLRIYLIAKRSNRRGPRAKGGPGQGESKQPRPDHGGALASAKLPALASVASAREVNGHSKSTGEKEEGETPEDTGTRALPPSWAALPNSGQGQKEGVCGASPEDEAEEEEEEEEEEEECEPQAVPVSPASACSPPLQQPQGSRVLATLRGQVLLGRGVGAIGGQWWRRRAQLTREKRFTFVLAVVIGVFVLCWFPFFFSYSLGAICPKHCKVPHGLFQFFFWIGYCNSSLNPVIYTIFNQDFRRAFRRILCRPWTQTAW
How it was run: as §1

[2] = read-out: pKi alpha-2 2c (converted)
[3] = read-out: pKi alpha-1 1a (converted)
[4] = read-out: pKi alpha-2 2b (converted)

Compound	Ki (α2C receptor; [2]) [nM]	Ki ([1]; pKi alpha-1 1a) [nM]	Ki (α2B receptor; pKi alpha-2 2b) [nM]	Ki (α2C receptor; pKi alpha-2 2c) [nM]	Ki [1, 3] [nM]	Ki (α2B receptor; [4]) [nM]	pKi alpha-2 2c (α2C receptor)	pKi alpha-2 2b (α2B receptor)
COc1cccc(C2C(C(N)=O)=C(C)NC(C)=C2C(=O)NCCCN2CCC(c3ccccc3)(c3ccccc3)CC2)c1 (stereo not drawn) [Example 117, 5-Carboxamido-1,4-dihydro-4-(3-Methoxyphenyl)-2,6-dimethyl-3-(N-(3-(4,4-diphenylpiperidin-1-yl)propyl)carboxamido)-pyridine]	759	2090	437					
CCC1=C(C(N)=O)C(c2ccc(S(C)(=O)=O)cc2)C(C(=O)NCCCN2CCC(c3ccccc3)(c3ccccc3)CC2)=C(C)N1 (stereo not drawn) [Example 118, 3-Carboxamido-2-ethyl-1,4-dihydro-4-(4-methanesulfonylphenyl)-6-methyl-3-(N-(3-(4,4-diphenylpiperidin-1-yl)propyl)carboxyamido)-pyridine]		2190	1450	2240				
CCC1=C(C(N)=O)C(c2ccc([N+](=O)[O-])cc2)C(C(=O)NCCCN2CCN(c3ccccc3OC)CC2)=C(CC)N1 (stereo not drawn) [Example 125, 5-Carboxamido-2,6-diethyl-1,4-dihydro-3-(N-{3-[4-(2-methoxyphenyl)piperazin-1-yl]propyl})carboxamido-4-(4-nitrophenyl)pyridine]	22.9				77.6	186		
CC(C)C1=C(C(N)=O)C(c2ccc([N+](=O)[O-])cc2)C(C(=O)NCCCN2CCC(c3ccccc3)(c3ccccc3)CC2)=C(C(C)C)N1 (stereo not drawn) [Example 127]		355					6.37	6.42
CCC1=C(C(=O)NC)C(c2ccc([N+](=O)[O-])cc2)C(C(=O)NCCCN2CCC(c3ccccc3)(c3ccccc3)CC2)=C(CC)N1 (stereo not drawn) [Example 128, 2,6-Diethyl-1,4-dihydro-5-(N-methyl)carboxamido-4-(4-nitrophenyl)-3-{N-[3-(4,4-diphenylpiperidin-1-yl)propyl]}carboxamidopyridine]	219	977	437					
CCC1=C(C(=O)OCCC#N)C(c2ccc([N+](=O)[O-])cc2)C(C(=O)NCCCN2CCC(c3ccccc3)(c3ccccc3)CC2)=C(COC)N1 (stereo not drawn) [Example 135]	339				501	389		
CCC1=C(C(=O)NCCCN2CCC(c3ccccc3)(c3ccccc3)CC2)C(c2ccc([N+](=O)[O-])cc2)C(C(=O)OC(C)(C)C)=C(COCCN=[N+]=[N-])N1 (stereo not drawn) [Example 139]		479	1260	309				
CCC1=C(C(=O)OCCC#N)C(c2ccc([N+](=O)[O-])cc2)C(C(=O)NCCCN2CCC(c3ccccc3)(c3ccccc3)CC2)=C(COCCN=[N+]=[N-])N1 (stereo not drawn) [Example 141]		50.1	437	355				
CCNC(=O)C1=C(COCCN=[N+]=[N-])NC(CC)=C(C(=O)NCCCN2CCC(c3ccccc3)(c3ccccc3)CC2)C1c1ccc([N+](=O)[O-])cc1 (stereo not drawn) [Example 147, 2-((2-Azidoethyl)oxy)methyl-6-ethyl-3-(N-ethyl)carboxamido-1,4-dihydro-4-(4-nitro)phenyl-5-(N-(3-(4,4-diphenylpiperidin-1-yl-)propyl))carboxamidopyridine]		372	1100	251				
CCC1=C(C(=O)NCCCN2CCC(c3ccccc3)(c3ccccc3)CC2)C(c2ccc([N+](=O)[O-])cc2)C(C(N)=O)=C(COCCN=[N+]=[N-])N1 (stereo not drawn) [Example 149, 2-((2-Azidoethyl)oxy)methyl-3-carboxamido-6-ethyl-1,4-dihydro-4-(4-nitro) phenyl-5-(N-(3-(4,4-diphenylpiperidin-1-yl)propyl))carboxamidopyridine]		324	562	257				
CCC1=C(C(=O)NCCCN2CCC(c3ccccc3)(c3ccccc3)CC2)C(c2ccc([N+](=O)[O-])cc2)C(C(=O)NC)=C(COCCN=[N+]=[N-])N1 (stereo not drawn) [Example 151, 2-((2-Azidoethyl)oxy)methyl-6-ethyl-1,4-dihydro-3-(N-methyl)carboxamido-4-(4-nitro)phenyl-5-(N-(3-(4,4-diphenylpiperidin-1-yl)propyl))carboxamidopyridine]		631	537	209				
